# Measurements taken from patent US20240016245A1, “ANTIMICROBIAL FACEMASK” (BMG (British Medical Group) Limited, priority 2020, published 2024).
# Assay: Compatibility of surfactants with copper sulfate solutions for coating fabric
# Type: physicochemical
Compound,precipitation from copper sulfate solutions / solution suitable for coating,solubility in solutions of copper sulfate (in solutions of copper sulfate)
CCCCCCCCCCCC[N+](C)(C)[O-] [dimethyl dodecylamine N-oxide],causing precipitation,–
CCCCCCCCCCCC[N+](C)(C)CC(=O)O [dimethyl dodecylglycine betaine],did not cause precipitation,–
CCCCCCCCCCCC[N+](C)(C)CCCS(=O)(=O)O [lauryl sulfobetaine],did not cause precipitation,–
CCCCCCCCCCCCOS(=O)(=O)[O-].[Na+] [sodium dodecylsulfate],acceptable solution for coating,–
sodium dodecylbenzenesulfonate,–,very low and insufficient solubility
